Values of other authors as cited in patent publication US20080280973A1, “Laulimalide Analogues as Therapeutic Agents” (priority 2004, published 2008).

Experiments:
[1] = test system: multi-drug resistant cell line SKVLB-1
[2] = test system: KB, P388, A549, HT29 and MEL28 cell lines
[3] = test system: HeLa cells, NCI/ADR cells, MDA-MB-435 cell line; conditions: relative to laulimalide; cell line not specified

Molecule | IC50 [1] [nM] | anti-tumor potency range [2] | fold less potent than laulimalide [3]
C=C1C[C@H](C)C[C@@H]2CC=C[C@@H](C/C=C\C(=O)O[C@H]([C@@H](O)/C=C/[C@@H]3CC(C)=CCO3)C[C@@H]3O[C@H]3[C@@H](O)C1)O2 [Laulimalide, laulimalide] | 1200 | nanomolar range | 
C16-C17-des-epoxy laulimalide [des-epoxy analogue] |  |  | approximately 19 fold
